Source: DBAASP
Values after ≈ are worked out from the molar mass of the structure shown. Values joined by “and” are separate entries in the source; they are usually repeats but may differ in a detail not shown here. Identical values can stand only once. Blank lines part the entries; values can stand above or below the compound they belong to.

Assays:
Assay in all cases: ≥ marks a high value that may be exact or a test limit, other limits are often not marked, values filed in µg/mL are converted to µM
[1] = system: Bacillus subtilis ATCC 6633
[2] = system: Candida albicans ATCC 10231
[3] = system: Candida parapsilosis ATCC 22019
Cryptococcus neoformans = system: Cryptococcus neoformans
[4] = system: Escherichia coli ATCC 25922
[5] = system: Escherichia coli ATCC 9637
[6] = system: Klebsiella pneumoniae ATCC 27736
[7] = system: Pseudomonas aeruginosa ATCC BAA-427
[8] = system: Staphylococcus aureus ATCC 25923
[9] = system: Staphylococcus aureus ATCC 29213
[10] = system: Staphylococcus aureus ATCC 33592
[11] = system: Staphylococcus aureus ATCC 700698
[12] = system: Staphylococcus aureus ATCC 700699
[13] = system: Staphylococcus aureus ATCC BAA-44
[14] = system: Aspergillus oryzae NBRC 100959
[15] = system: Candida viswanathii NBRC 10321
[16] = system: Escherichia coli NBRC 3972
[17] = system: Micrococcus luteus NBRC 3333
[18] = system: Staphylococcus epidermidis NBRC 12993
[19] = system: Escherichia coli ATCC 9723H
Escherichia coli NDM = system: Escherichia coli NDM
[20] = system: Staphylococcus aureus ATCC 6538P
[21] = system: Klebsiella pneumoniae ATCC 13883
[22] = system: Staphylococcus aureus USA 300 LAC
[23] = system: Pseudomonas aeruginosa 253
[24] = system: Pseudomonas aeruginosa 910
[25] = system: Pseudomonas aeruginosa 919
[26] = system: Pseudomonas aeruginosa PAO1
Bacillus subtilis 168 HT = system: Bacillus subtilis 168 HT
[27] = system: Escherichia coli K12 MG1655
[28] = system: Staphylococcus aureus ST88
[29] = system: Staphylococcus haemolyticus 527
[30] = system: Candida albicans ATCC 90028
[31] = system: Enterococcus faecium ATCC 29212
[32] = system: Escherichia coli O157:H7 ATCC 43895
[33] = system: Malassezia furfur KCTC 7744
[34] = system: Pseudomonas aeruginosa ATCC 27853
[35] = system: Streptococcus mutans KCTC 3065
[36] = system: Trichosporon beigelii KCTC 7707
[37] = system: Vibrio vulnificus ATCC 29307
[38] = system: Escherichia coli NBRC 14237
[39] = system: Pseudomonas aeruginosa NBRC 12582
[40] = system: Saccharomyces cerevisiae NBRC 10217
[41] = system: Staphylococcus aureus NBRC 12732

MIC [1]: 3.8 µM (≈ 6.16 µg/mL) | MIC [2]: 6 µM (≈ 9.73 µg/mL) | MIC [3]: 6 µM (≈ 9.73 µg/mL) | MIC (Cryptococcus neoformans): 6 µM (≈ 9.73 µg/mL) | MIC [4]: 1.9 µM (≈ 3.08 µg/mL) | MIC [5]: 6.25 µM (≈ 10.1 µg/mL) | MIC [6]: 3.8 µM (≈ 6.16 µg/mL) | MIC [7]: 6.8 µM (≈ 11 µg/mL) | MIC [8]: 3.8 µM and 7.6 µM | MIC [9]: 12 µM (≈ 19.5 µg/mL) | MIC [10]: 12 µM (≈ 19.5 µg/mL) | MIC [11]: 12 µM (≈ 19.5 µg/mL) | MIC [12]: 12 µM (≈ 19.5 µg/mL) | MIC [13]: 12 µM (≈ 19.5 µg/mL)
SMILES: CC[C@H](C)[C@H](NC(=O)[C@H](CCCN=C(N)N)NC(=O)CNC(=O)[C@H](CC(C)C)NC(=O)[C@H](CCCCN)NC(=O)[C@H](CCCCN)NC(=O)[C@H](Cc1c[nH]c2ccccc12)NC(=O)[C@H](Cc1ccccc1)NC(=O)[C@H](CO)NC(=O)[C@H](CCCCN)NC(=O)[C@@H](NC(=O)[C@@H](N)Cc1ccccc1)C(C)C)C(=O)N[C@@H](CC(C)C)C(N)=O [FVKSFWKKLGRIL]

MIC [14]: 14.9 µM (≈ 25 µg/mL) | MIC [15]: 14.9 µM (≈ 25 µg/mL) | MIC [16]: ≥ 239 µM | MIC [17]: 29.8 µM (≈ 50 µg/mL) | MIC [18]: 14.9 µM (≈ 25 µg/mL)
SMILES: CSCC[C@H](NC(=O)[C@H](CCCCN)NC(=O)[C@@H](N)CCCN=C(N)N)C(=O)N[C@@H](CCCCN)C(=O)N[C@@H](CCCN=C(N)N)C(=O)N[C@H](C(=O)N[C@@H](Cc1c[nH]c2ccccc12)C(=O)N[C@@H](CCCCN)C(=O)N[C@@H](CCCN=C(N)N)C(=O)N[C@@H](Cc1ccccc1)C(=O)N[C@@H](CCCCN)C(=O)N[C@@H](CC(C)C)C(=O)O)C(C)C [RKMKRVWKRFKL]

MIC [4]: 6 µM (≈ 17.4 µg/mL) | MIC [19]: 15.6 µM (≈ 45.2 µg/mL) | MIC (Escherichia coli NDM): 6 µM (≈ 17.4 µg/mL) | MIC [20]: ≥ 88 µM
SMILES: CC[C@H](C)[C@H](NC(=O)[C@@H](NC(=O)[C@@H]1CCCN1C(=O)[C@H](CC(C)C)NC(=O)[C@H](Cc1ccccc1)NC(=O)[C@H](CCCCN)NC(=O)[C@H](CC(N)=O)NC(=O)[C@H](C)NC(=O)[C@H](CC(C)C)NC(=O)[C@@H]1CCCN1C(=O)[C@H](CC(C)C)NC(=O)[C@@H](NC(=O)[C@H](CCCN=C(N)N)NC(=O)[C@@H]1CCCN1C(=O)[C@H](Cc1ccccc1)NC(=O)[C@@H](N)Cc1ccccc1)C(C)C)[C@@H](C)O)C(=O)N[C@@H](Cc1ccc(O)cc1)C(=O)N[C@@H](CS)C(=O)N[C@@H](C)C(=O)N[C@@H](CC(C)C)C(=O)N1CCC[C@H]1C(=O)N[C@@H](CCCCN)C(=O)N[C@@H](CO)C(=O)N[C@H](C(=O)NCC(=O)N[C@@H](CC(N)=O)C(=O)O)C(C)C [FFPRVLPLANKFLPTIYCALPKSVGN]

MIC [4]: 12.5 µM (≈ 15.9 µg/mL) | MIC [21]: 17.7 µM (≈ 22.5 µg/mL) | MIC [22]: 3.1 µM (≈ 3.94 µg/mL)
SMILES: CC[C@H](C)[C@H](N)C(=O)N[C@@H](Cc1c[nH]c2ccccc12)C(=O)N[C@@H](Cc1c[nH]c2ccccc12)C(=O)N[C@@H](Cc1c[nH]c2ccccc12)C(=O)N[C@@H](Cc1c[nH]c2ccccc12)C(=O)N[C@@H](CC(C)C)C(=O)N[C@@H](CCCN=C(N)N)C(=O)N[C@@H](CCCCN)C(N)=O [IWWWWLRK]

MIC [23]: 16 µM (≈ 30.2 µg/mL) | MIC [24]: 8 µM (≈ 15.1 µg/mL) | MIC [25]: ≥ 32 µM | MIC [26]: 4 µM (≈ 7.56 µg/mL)
SMILES: CC[C@H](C)[C@H](NC(=O)[C@@H](N)Cc1ccccc1)C(=O)N[C@@H](CCCCN)C(=O)N[C@@H](Cc1c[nH]c2ccccc12)C(=O)N[C@@H](CCCCN)C(=O)N[C@@H](CCCCN)C(=O)N[C@@H](CCCN=C(N)N)C(=O)N[C@@H](Cc1c[nH]c2ccccc12)C(=O)N[C@@H](Cc1c[nH]c2ccccc12)C(=O)N[C@@H](CCCCN)C(=O)N[C@@H](CCCCN)C(=O)N[C@@H](CCCN=C(N)N)C(=O)N[C@H](C(N)=O)[C@@H](C)O [FIKWKKRWWKKRT]

MIC (Bacillus subtilis 168 HT): 5.3 µM (≈ 16.3 µg/mL) | MIC [27]: 10.5 µM (≈ 32.3 µg/mL) | MIC [28]: ≥ 100 µM
SMILES: CC[C@H](C)[C@H](N)C(=O)N[C@H](C(=O)N[C@@H](CCCCN)C(=O)N[C@@H](CCCN=C(N)N)C(=O)N[C@@H](Cc1ccccc1)C(=O)N[C@@H](Cc1ccccc1)C(=O)N[C@@H](CCCN=C(N)N)C(=O)N[C@H](C(=O)N[C@@H](CO)C(=O)N[C@@H](Cc1ccc(O)cc1)C(=O)N[C@@H](CCCCN)C(=O)N[C@@H](CC(C)C)C(=O)N[C@@H](CCC(N)=O)C(=O)N[C@@H](CO)C(=O)N[C@@H](CC(C)C)C(=O)N[C@@H](CCCCN)C(=O)N[C@H](C(=O)N[C@H](C(=O)N[C@@H](CCCCN)C(=O)NCC(=O)N[C@@H](CCCCN)C(=O)N[C@@H](CCCN=C(N)N)C(=O)N[C@H](C(=O)N[C@@H](Cc1ccccc1)C(=O)N[C@H](C(=O)O)[C@@H](C)O)[C@@H](C)O)[C@@H](C)CC)[C@@H](C)CC)[C@@H](C)CC)C(C)C [IVKRFFRISYKLQSLKIIKGKRTFT]
MIC [29]: 5.3 µM (≈ 16.3 µg/mL)

MIC [30]: ≥ 42.5 µM | MIC [31]: 21.3 µM (≈ 25.1 µg/mL) | MIC [32]: 10.6 µM (≈ 12.5 µg/mL) | MIC [33]: ≥ 42.5 µM | MIC [34]: 21.3 µM (≈ 25.1 µg/mL) | MIC [8]: 42.5 µM (≈ 50 µg/mL) | MIC [35]: 21.3 µM (≈ 25.1 µg/mL) | MIC [36]: 21.3 µM (≈ 25.1 µg/mL)
SMILES: CC(C)C[C@H](N)C(=O)N[C@@H](CCCN=C(N)N)C(=O)N[C@@H](CCC(N)=O)C(=O)N[C@@H](CO)C(=O)N[C@@H](CCC(N)=O)C(=O)N[C@@H](Cc1ccccc1)C(=O)N[C@H](C(=O)NCC(=O)N[C@@H](CO)C(=O)N[C@@H](CCCN=C(N)N)C(N)=O)C(C)C [LRQSQFVGSR]
MIC [37]: ≥ 42.5 µM

MIC [38]: 3.12 µM (≈ 7.83 µg/mL) | MIC [39]: 6.25 µM (≈ 15.7 µg/mL) | MIC [40]: 6.25 µM (≈ 15.7 µg/mL) | MIC [41]: 3.12 µM (≈ 7.83 µg/mL)
SMILES: CSCC[C@H](NC(=O)CNC(=O)[C@@H](NC(=O)[C@H](CCCCN)NC(=O)[C@H](C)NC(=O)CNC(=O)[C@@H](NC(=O)[C@H](CCCCN)NC(=O)[C@H](C)NC(=O)[C@H](C)NC(=O)[C@H](CCCCN)NC(=O)[C@H](CCCCN)NC(=O)[C@H](CC(C)C)NC(=O)[C@H](Cc1ccccc1)NC(=O)[C@H](CC(N)=O)NC(=O)[C@H](CC(C)C)NC(=O)[C@H](Cc1ccccc1)NC(=O)[C@H](CCCCN)NC(=O)CNC(=O)CNC(=O)[C@@H](N)CCCCN)C(C)C)C(C)C)C(=O)N[C@@H](C)C(=O)N[C@@H](C)C(=O)N[C@@H](CC(C)C)C(=O)NCC(=O)O [KGGKFLNFLKKAAKVGAKVGMAALG]
